From patent publication US4440770A, “Diuretic, hypotensive and antiedemic quinoline oximes” (Mochida Seiyaku Kabushiki Kaisha, priority 1980, dated 1984)

How the values were obtained:
[1] = Properties of respective derivatives (solubility); assay type: physicochemical
[2] = tested on: rats; assay: Diuretic effect in rats; assay type: in vivo, Wister strain male rats; settings: Rattus norvegicus, po, 5 h, urine volume up to 5 hours, % of control
Experimental: Wister strain male rats weighing about 200 g were starved overnight and each compound of this invention suspended in 25 ml/kg of physiological saline were administered orally to the 5 animals in each group, and the diuretic effect up to 5 hours after the administration was measured. The diuretic effect is expressed as the average urine volume (%) of the treated group divided by that of the control group.

[3] = tested on: Carrageenin-Induced Foot Edema; assay: Inhibition for carrageenin-induced foot edema in rats; assay type: in vivo, Wister strain male rats; settings: Rattus norvegicus, po, 1 hour before carrageenin, paw volume 3 hours after, probit method, read-out: ED30 (dosage for 30% inhibition of edema)
Experimental: 10 Wister strain male rats weighing about 120 g were used in each group. Each compound of this invention was suspended in a 5% aqueous arabic gum solution and administered orally to the animals. One hour after the administration, 0.1 ml of a 1% solution of carrageenin in physiological saline as a phlogistic agent was subcutaneously injected into the right hind paw of the rats which had been shaven previously. The volume of the right hind paw was measured before the administration of the phlogistic agent and 3 hours after the administration. The intensity of edema expressed as percent increase in the foot volume was calculated from the […] (1) and the percent inhibition of edema was calculated from the equation (2). [formula]
The effective dosage of each compound for inhibiting edema was expressed as ED30 (mg/kg) by calculating the dosage for 30% inhibition from the percent inhibition of edema according to the probit method.

[4] = Acute oral toxicity in mice; settings: mouse, in vivo, mortality 7 days after administration
Experimental: 10 ddY Strain male mice weighing about 20 g were used in each group. Each compound of this invention was suspended in a 5% aqueous gum arabic solution and administered orally. The mortality rate (%) was determined from the number of dead animals 7 days after the administration, and the dosage corresponding to 50% mortality was calculated and expressed as LD50 (mg/kg).

SMILES | Solubility in ethanol and dichloromethane ([1]; ethanol and dichloromethane) | Solubility in water and hexane [1] | response vs control in vivo at 2.5 mg/kg ([2]; dosage 2.5 mg/kg) [%] | response vs control in vivo at 5 mg/kg ([2]; dosage 5 mg/kg) [%] | response vs control in vivo at 10 mg/kg ([2]; dosage 10 mg/kg) [%] | ED30 [3] [mg/kg] | LD50 at 168 h [4] [mg/kg] | Solubility in methanol, acetone and chloroform ([1]; methanol, acetone and chloroform) | response vs control in vivo at 50 mg/kg ([2]; dosage 50 mg/kg) [%]
CCC(=O)N1CCC(=NO)c2cc(F)ccc21 [Compound XV, 6-Fluoro-4-oximino-1-propionyl-1,2,3,4-tetrahydroquinoline] | soluble | Sparingly soluble | 209 | 347 | 425 | 9.3 | 3440 |  | 
O=C(Cc1ccccc1)N1CCC(=NO)c2cc(Cl)ccc21 [Compound VII, 6-Chloro-4-oximino-1-phenylacetyl-1,2,3,4-tetrahydroquinoline] |  | Sparingly soluble |  |  |  | 140 | > 5000 | easily soluble | 202
